From PubChem BioAssay (NCI)
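Test compounds were applied to cells in 96-well plates for 48 hours at 5 doses. GI50 is the concentration that inhibits growth by half. TGI is the concentration that stops growth completely.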 Where a SMILES comes first, the peptide text is derived from it. [ ]: non-standard residue; d: D form. 2Nal = N[CH](Cc1ccc2ccccc2c1)C(=O)O

Key:
Test in all cases: NCI-60 cell line screen, 48 h
IGROV1 ovarian = system: IGROV1 ovarian
NCI-H460 lung = system: NCI-H460 lung
SNB-75 CNS = system: SNB-75 CNS
RPMI-8226 leukemia = system: RPMI-8226 leukemia
MOLT-4 leukemia = system: MOLT-4 leukemia
A549 NSCLC = system: A549 NSCLC
CCRF-CEM leukemia = system: CCRF-CEM leukemia
HOP-92 NSCLC = system: HOP-92 NSCLC
A498 renal = system: A498 renal
HCC-2998 colon = system: HCC-2998 colon

| SMILES | TGI (IGROV1 ovarian) | TGI (NCI-H460 lung) | TGI (SNB-75 CNS) | TGI (RPMI-8226 leukemia) | TGI (MOLT-4 leukemia) | TGI (A549 NSCLC) | TGI (CCRF-CEM leukemia) | TGI (HOP-92 NSCLC) | GI50 (NCI-H460 lung) | GI50 (RPMI-8226 leukemia) | GI50 (MOLT-4 leukemia) | GI50 (A549 NSCLC) | GI50 (CCRF-CEM leukemia) | GI50 (HOP-92 NSCLC) | GI50 (A498 renal) | TGI (A498 renal) | GI50 (HCC-2998 colon) | TGI (HCC-2998 colon) | GI50 (IGROV1 ovarian) | GI50 (SNB-75 CNS) |
| --- | --- | --- | --- | --- | --- | --- | --- | --- | --- | --- | --- | --- | --- | --- | --- | --- | --- | --- | --- | --- |
| CC(=O)O[C@H]1C(=O)[C@@]2(C)[C@H]([C@H](OC(=O)c3ccccc3)[C@@]3(O)C[C@H](O)C(C)=C1C3(C)C)[C@]1(OC(C)=O)CO[C@@H]1C[C@@H]2O | > 100 µM | > 100 µM | > 100 µM | > 100 µM | > 100 µM | > 100 µM | > 100 µM | > 100 µM | – | – | – | – | – | – | – | – | – | – | – | – |
| C/C=C(/C)C(=O)OC1C=C(CO)C(=O)C(OC(=O)C(C)(O)C(C)Cl)C1C(C)C (configuration not stated) | – | 8.62 µM | – | 2.65 µM | 4.88 µM | 9.36 µM | 2.05 µM | 3.57 µM | 2.28 µM | 0.429 µM | 0.301 µM | 2.81 µM | 0.327 µM | 1.77 µM | 1.9 µM | 3.87 µM | 1.79 µM | 3.35 µM | – | – |
| O=C(c1ccccc1)c1c(CC(O)c2ccccc2)n(C(=O)c2ccccc2)c2ccccc12 (configuration not stated) | > 100 µM | > 100 µM | 58.2 µM | > 100 µM | 54.4 µM | > 100 µM | > 100 µM | 98.9 µM | – | – | – | – | – | – | – | – | – | > 100 µM | – | – |
| NNC(=O)N/N=C1\C(=O)N(c2nccs2)C(=O)C(=O)C1c1nc2ccccc2s1 (configuration not stated) | > 100 µM | > 100 µM | > 100 µM | > 100 µM | – | > 100 µM | – | > 100 µM | – | – | – | – | – | – | – | – | – | > 100 µM | – | – |
| CCCN1C(=O)/C(=C/c2ccc(O)cc2)SC1=Nc1ccc(OC)cc1 | > 100 µM | 66.7 µM | 46.1 µM | 42 µM | > 100 µM | 26.1 µM | – | 23.2 µM | 17.6 µM | 12.4 µM | 10.7 µM | 12.5 µM | – | 6.91 µM | 9.61 µM | 22.7 µM | – | – | 30 µM | 17.8 µM |
| CCc1nc2cc(/C=C/C(=O)NO)ccc2c(=O)n1CCc1ccc(F)cc1 | – | 3.82 µM | – | > 100 µM | > 100 µM | 4.58 µM | > 100 µM | 6.28 µM | 1.08 µM | 0.99 µM | 1.79 µM | 1.72 µM | 1.39 µM | 2.45 µM | 1.1 µM | 2.77 µM | 1.59 µM | 3.95 µM | – | – |
| COC(=O)C(C(=O)C(=O)Nc1ccc(OC)cc1[N+](=O)[O-])c1nc2cc(C)c(C)cc2[nH]c1=O (configuration not stated) | > 100 µM | > 100 µM | > 100 µM | – | – | > 100 µM | > 100 µM | > 100 µM | – | – | – | – | – | – | – | > 100 µM | – | > 100 µM | – | – |
| CN(C)CCNC(=O)c1cccc2ncc(-c3ccccc3)nc12 | > 74.6 µM | 19.6 µM | 32.9 µM | – | 9.35 µM | > 74.9 µM | 56.8 µM | 59.1 µM | – | – | – | – | – | – | – | 31.4 µM | – | 23.4 µM | – | – |
| CO[C@@H]1[C@H]2[C@@H](C)c3ccoc3C[C@@H]2[C@@]2(C)CC[C@H](OC(=O)c3ccccc3)[C@](C)(C(=O)O)[C@]2(O)[C@@H]1OC(=O)c1ccccc1 | > 50 µM | > 50 µM | > 50 µM | > 50 µM | 38.4 µM | > 50 µM | > 50 µM | – | 13.4 µM | 15.4 µM | 9.67 µM | 10.6 µM | 22.7 µM | – | 0.941 µM | 7.67 µM | – | – | > 50 µM | > 50 µM |
| Cc1c(C2Cc3ccccc3N2)c2ccccc2n1C (configuration not stated) | > 100 µM | > 100 µM | > 100 µM | – | > 100 µM | > 100 µM | > 100 µM | – | – | – | – | – | – | – | – | > 100 µM | – | > 100 µM | – | – |
| CCOC(=O)c1c2cccccc2n2c(=O)cc(C)nc12 | > 100 µM | > 100 µM | – | > 100 µM | > 100 µM | > 100 µM | > 100 µM | – | – | – | – | – | – | – | – | > 100 µM | – | > 100 µM | – | – |
| CC(C)C(NC(=O)C(CCCCN)NC(=O)C(Cc1c[nH]c2ccccc12)NC(=O)C(Cc1ccc(O)cc1)NC(=O)C(CS)NC(=O)C(N)Cc1ccc2ccccc2c1)C(=O)NC(CS)C(=O)NC(C(N)=O)C(C)O (configuration not stated) (H-[2Nal]CYWKVCT-NH2; configuration not given here) | > 100 µM | > 100 µM | > 100 µM | > 100 µM | > 100 µM | > 100 µM | > 100 µM | – | > 100 µM | > 100 µM | > 100 µM | > 100 µM | > 100 µM | – | > 100 µM | > 100 µM | > 100 µM | > 100 µM | > 100 µM | – |
| Nc1nc(N)c(N=Nc2ccc(C(=O)O)c(O)c2)c(N)n1 | > 100 µM | > 100 µM | > 100 µM | > 100 µM | > 100 µM | > 100 µM | > 100 µM | > 100 µM | – | – | – | – | – | – | – | > 100 µM | – | – | – | – |
| CCCCCCCCCCCCCC(=O)OCC1OC(n2cc(F)c(=O)[nH]c2=O)C(N)C(OC(=O)CCCCCCCCCCCCC)C1O (configuration not stated) | – | > 100 µM | > 100 µM | > 100 µM | > 100 µM | > 100 µM | – | > 100 µM | – | – | – | – | – | – | – | > 100 µM | – | > 100 µM | – | – |
| COc1cc(CC(C(=O)O)C(=O)O)c(OC)cc1CC(C(=O)O)C(=O)O | > 100 µM | > 100 µM | > 100 µM | > 100 µM | > 100 µM | > 100 µM | > 100 µM | > 100 µM | – | – | – | – | – | – | – | > 100 µM | – | – | – | – |
| CCOC(=O)C1SC(=Nc2ccc(Cl)cc2C)N=C1C (configuration not stated) | 88 µM | 54.2 µM | 69.9 µM | – | 47.9 µM | 86.2 µM | – | 30 µM | – | – | – | – | – | – | – | 98.1 µM | – | 47.9 µM | – | – |
| O=C(O)CC1CC=C[C@H]2c3cc4c(cc3C(=O)NC12)OCO4 (some centres not stated) | > 75 µM | > 75 µM | > 75 µM | > 75 µM | > 75 µM | > 75 µM | > 75 µM | – | – | – | – | – | – | – | – | – | – | > 75 µM | – | – |
| CC(=O)C1CCC2C3CC=C4CC(SC(=N)N)CCC4(C)C3CCC12C (configuration not stated) | – | 3.09 µM | 4.15 µM | 3.33 µM | 4.19 µM | 3.61 µM | 4.26 µM | – | 1.58 µM | 1.41 µM | 1.78 µM | 1.82 µM | 1.79 µM | – | 1.19 µM | 3.73 µM | – | – | – | 1.58 µM |
| CC(CCCC1SCC2NC(=O)NC21)C(=O)O (configuration not stated) | > 100 µM | > 100 µM | > 100 µM | > 100 µM | > 100 µM | > 100 µM | – | > 100 µM | – | – | – | – | – | – | – | > 100 µM | – | – | – | – |
